Laboratory results: patent US20260315446A1, “ANTIFUNGAL COMPOUNDS AND USES THEREOF” (priority 2023, published 2026)
Values after ≈ are worked out from the molar mass of the structure shown. Read-outs that look alike come from different tables or passages of the source.

Assays:
[1] = system: C. neoformans growth versus IL-2 in murine T cells; experiment: Therapeutic index score (immunosuppressive fold change to antifungal fold change relative to FK506); parameters: species or system Cryptococcus neoformans; mouse; settings: Example 3; C. neoformans H99, FK506 = 1.0
Text: To assess the therapeutic potential for these compounds, it was important to develop an approach to score and rank them based on antifungal and immunosuppressive activities. The therapeutic index score (TIscore) is a ratio of the immunosuppressive fold change to the antifungal fold change, with all values relative to the baseline FK506 activity (FIG. 6B). A TIscore of >1.0 indicates an increase in fungal specificity because the fold change of the immunosuppressive reduction is greater than the antifungal activity reduction. As an example, JH-FK-05 is 20-fold reduced for antifungal activity but about 180-fold reduced for immunosuppression. Therefore, the TIscore of JH-FK-05 is 9.1 (TIscore=182/20). The top two analogs were JH-FK-02 (TIscore=9.7) and JH-FK-05 (TIscore=9.1). Due to the similar TIscore, JH-FK-05 was prioritized to advance to animal trials on the merit of more pronounced antifungal activity compared to JH-FK-02.
Based on the in vitro fungal and mammalian calcineurin inhibition data, the panel of FK520 analogs was assessed and ranked. Therapeutic index (TI) scores were used to quantify the effects of structural modification on the compounds (Table 8). Therapeutic index scores were calculated for each analog as the ratio of relative change in immunosuppressive and antifungal activities compared to FK506 as previously utilized (see, I-Toy M J, et at. 2022. mBio 13:e0104922). This ratio of therapeutic benefit and host toxicity, or fungal and mammalian calcineurin inhibition, allowed us to quantify and rank these analogs. […] This is the greatest TI found within the library and allowed us to identify JH-FK-08 as a lead candidate for an in vivo study. Tolerability of JH-FK-08 was assessed by monitoring animal responses to drug dosing across 14 days, including changes in weight, fur condition, and behavior. A maximum dose of 40 mg/kg was tested in once a day dosing, and due to solubility limitations, the tolerability of JH-FK-08 at 60 and 80 mg/kg total daily doses was assessed by dosing two equal doses per day (FIG. 14). […] It should be noted that analogs JH-FK-12 and JH-FK-23 are also promising candidates with respective Tis of 24.7 and 24.5.

Cryptococcus neoformans = experiment: MIC assay (Example 3); assay type: cell-based; settings: Cryptococcus neoformans
Method: (§1) In vitro antifungal activity was assessed for all fungal strains in RPMI 1640 (Sigma-Aldrich R1383). MICs were measured using Clinical and Laboratory Standards Institute (CLSI) M38-A2 and M27-A3 standard in vitro antifungal susceptibility protocols. C. neoformans and A. fumigatus testing was performed at 37° C. MECs for A. fumigatus were recorded after 48 h of growth. C. albicans testing was performed at 30° C. with a uniform concentration of 2 μg/mL of fluconazole to sensitize the cells to calcineurin inhibition.
(§2) C. neoformans clinical isolate H99 and congenic-derived strain KN99α were used (see, Nielsen K, et al., 2003. Infect Immun 71:4831-4841). KN99α-derived frr1Δ deletion mutants with nourseothricin resistance markers as part of the Madhani deletion collection (NIH funding R01AI100272) were used. C. deneoformans strains used include JEC21 and derived C21F2 (CNB1-1) and C21F3 (frr1-3) strains (see, Odom A, et al., 1997. EMBO J 16:2576-2589; Moore T D, Edman J C. 1993. Mol Cell Biol 13:1962-1970; Fox D S, et al., 2001. Mol Microbiol 39:835-849). C. albicans strain SC5314 is the wild-type strain from which mutants YAG171 (rbp1/rbp1) and YAG237 (CNB1-1/CNB1) were derived (see, Cruz M C, et al., 2001. Antimicrob Agents Chemother 45:3162-3170). A. fumigatus strain akuB^Ku80 and a derived FKBP12 mutant fkbp12A were used during antifungal screening (see, Falloon K, et al., 2015. PLoS One 10:e0137869).

[2] = system: IL-2 expression in primary mouse CD4+ T cells (mammalian calcineurin); experiment: In vitro immunosuppressive activity, IL-2 expression (Example 3); assay type: cell-based; settings: 72 h
Method: Modifications at the C-22 position reduce inhibition of mammalian calcineurin signaling Mammalian calcineurin inhibition was then assessed and found to be reduced for these FK520 analogs. The inhibition of mammalian calcineurin was assessed by measuring the reduction of IL-2 expression from primary mouse CD4^+ T cells cultured in the presence of FK506, FK520, or an analog. Calcineurin activity is required for T cell activation and cytokine production, and IL-2 production serves as an effective measure of mammalian calcineurin activity. After culturing mouse CD4′ T cells for 72 h, IL-2 expression was analyzed by flow cytometry to evaluate the immunosuppressive activity of the analogs. […] However, compound concentrations that permit high IL-2 expression are less likely to result in cell death.
Spleen and lymph nodes from C57BL/6 mice were collected and homogenized through a 40-μm filter. Pan-CD4^+ T cells were enriched using the MagniSort Mouse CD4 T Cell Enrichment Kit (Invitrogen). Thereafter, CD4^+CD25^−CD62L^hiCD44^lo naïve CD4^+ T cells were FACS-sorted using a MoFlo Astrios cell sorter (Beckman Coulter). Naïve CD4^+ T cells were cultured in Iscove's Modified Dulbecco's Medium supplemented with 10% fetal bovine serum (FBS), penicillin (10 U/mL), streptomycin (10 μg/mL), glutamine (2 mM), gentamicin (50 μg/mL), and β-mercaptoethanol (55 μM). Cells were cultured for 72 h on anti-hamster IgG-coated plates with hamster anti-CD3s antibodies, hamster anti-CD28 antibodies, neutralizing anti-IL-4 antibodies, recombinant IL-12 (10 ng/mL), and recombinant IL-2 (50 U/mL). During this culture, cells were incubated with serially diluted drugs suspended in DMSO.

Candida albicans = experiment: MIC assay (Example 3); assay type: cell-based; settings: Candida albicans
Method: as §1, §2

Aspergillus fumigatus = experiment: MEC assay (Example 3); settings: strain akuB^Ku80
[3] = SC5314, read-out: MIC against Candida albicans (SC5314)
[4] = read-out: MIC against Cryptococcus neoformans (H99)
[5] = SC5314, MIC80, 30° C. with 2 μg/mL fluconazole, read-out: MIC against Candida albicans (SC5314)
[6] = MIC90, 37° C., read-out: MIC against Cryptococcus neoformans (H99)

Structure (SMILES) | Therapeutic index [1] | MIC (Cryptococcus neoformans; Table 8, read-out: H99 MIC90) | IC50 [2] | MIC (Candida albicans; [3]) | MIC (Cryptococcus neoformans; [4]) | MEC against Aspergillus fumigatus (akuB^Ku80) (Aspergillus fumigatus) | MIC (Candida albicans; [5]) | MIC (Cryptococcus neoformans; [6])
CC[C@@H]1/C=C(\C)C[C@H](C)C[C@H](OC)[C@H]2O[C@@](O)(C(=O)C(=O)N3CCCC[C@H]3C(=O)O[C@H](/C(C)=C/C3CC[C@@H](O)[C@H](OC)C3)[C@H](C)[C@@H](O)C/C1=N/NC(=O)NN)[C@H](C)C[C@@H]2OC (stereo partly drawn) [JH-FK-21] | 18.9 | 1.6 µg/mL (≈ 1.85 µM) | 54.5 nM |  |  |  |  | 
CC[C@@H]1/C=C(\C)C[C@H](C)C[C@H](OC)[C@H]2O[C@@](O)(C(=O)C(=O)N3CCCC[C@H]3C(=O)O[C@H](/C(C)=C/[C@@H]3CC[C@@H](O)[C@H](OC)C3)[C@H](C)[C@@H](O)CC1=NNC(=O)CO)[C@H](C)C[C@@H]2OC [JH-FK-22] |  |  |  | 1.6 µg/mL (≈ 1.85 µM) | 1.6 µg/mL (≈ 1.85 µM) | 2.5 µg/mL |  | 
CC[C@@H]1/C=C(\C)C[C@H](C)C[C@H](OC)[C@H]2O[C@@](O)(C(=O)C(=O)N3CCCC[C@H]3C(=O)O[C@H](/C(C)=C/C3CC[C@@H](O)[C@H](OC)C3)[C@H](C)[C@@H](O)C/C1=N/NC(N)=O)[C@H](C)C[C@@H]2OC (stereo partly drawn) [JH-FK-12] | 24.7 | 0.8 µg/mL (≈ 0.942 µM) | 35.6 nM |  |  | 2.5 µg/mL | 0.8 µg/mL (≈ 0.942 µM) | 0.8 µg/mL (≈ 0.942 µM)
CC[C@@H]1/C=C(\C)C[C@H](C)C[C@H](OC)[C@H]2O[C@@](O)(C(=O)C(=O)N3CCCC[C@H]3C(=O)O[C@H](/C(C)=C/[C@@H]3CC[C@@H](O)[C@H](OC)C3)[C@H](C)[C@@H](O)CC1=NNC(=O)NN)[C@H](C)C[C@@H]2OC [JH-FK-21] |  |  |  | 0.8 µg/mL (≈ 0.926 µM) | 1.6 µg/mL (≈ 1.85 µM) | 2.5 µg/mL |  | 
CC[C@@H]1/C=C(\C)C[C@H](C)C[C@H](OC)[C@H]2O[C@@](O)(C(=O)C(=O)N3CCCC[C@H]3C(=O)O[C@H](/C(C)=C/C3CC[C@@H](O)[C@H](OC)C3)[C@H](C)[C@@H](O)C/C1=N/NC(=O)c1ccncc1)[C@H](C)C[C@@H]2OC (stereo partly drawn) [JH-FK-09] | 7.8 | 0.8 µg/mL (≈ 0.878 µM) | 11.2 nM |  |  | 1.3 µg/mL | 0.8 µg/mL (≈ 0.878 µM) | 0.8 µg/mL (≈ 0.878 µM)
CC[C@@H]1/C=C(\C)C[C@H](C)C[C@H](OC)[C@H]2O[C@@](O)(C(=O)C(=O)N3CCCC[C@H]3C(=O)O[C@H](/C(C)=C/C3CC[C@@H](O)[C@H](OC)C3)[C@H](C)[C@@H](O)C/C1=N/NS(C)(=O)=O)[C@H](C)C[C@@H]2OC (stereo partly drawn) [JH-FK-23] | 24.5 | 1.6 µg/mL (≈ 1.81 µM) | 70.5 nM |  |  | 5 µg/mL | 1.6 µg/mL (≈ 1.81 µM) | 1.6 µg/mL (≈ 1.81 µM)
CC[C@@H]1/C=C(\C)C[C@H](C)C[C@H](OC)[C@H]2O[C@@](O)(C(=O)C(=O)N3CCCC[C@H]3C(=O)O[C@H](/C(C)=C/C3CC[C@@H](O)[C@H](OC)C3)[C@H](C)[C@@H](O)C/C1=N/NC(=O)CO)[C@H](C)C[C@@H]2OC (stereo partly drawn) [JH-FK-22] | 15.6 | 1.6 µg/mL (≈ 1.85 µM) | 45 nM |  |  |  |  | 
CC[C@@H]1/C=C(\C)C[C@H](C)C[C@H](OC)[C@H]2O[C@@](O)(C(=O)C(=O)N3CCCC[C@H]3C(=O)O[C@H](/C(C)=C/[C@@H]3CC[C@@H](O)[C@H](OC)C3)[C@H](C)[C@@H](O)CC1=NNS(=O)(=O)c1ccc(C)cc1)[C@H](C)C[C@@H]2OC [JH-FK-13] |  |  |  | > 50 µg/mL | > 50 µg/mL | >10 µg/mL |  | 
CCN/N=C1/C[C@H](O)[C@@H](C)[C@@H](/C(C)=C/C2CC[C@@H](O)[C@H](OC)C2)OC(=O)[C@@H]2CCCCN2C(=O)C(=O)[C@]2(O)O[C@H]([C@@H](OC)C[C@@H](C)C/C(C)=C/[C@H]1CC)[C@@H](OC)C[C@H]2C (stereo partly drawn) [JH-FK-16] | 8.2 | 0.4 µg/mL (≈ 0.48 µM) | 5.9 nM |  |  |  |  | 
CCNN=C1C[C@H](O)[C@@H](C)[C@@H](/C(C)=C/[C@@H]2CC[C@@H](O)[C@H](OC)C2)OC(=O)[C@@H]2CCCCN2C(=O)C(=O)[C@]2(O)O[C@H]([C@@H](OC)C[C@@H](C)C/C(C)=C/[C@H]1CC)[C@@H](OC)C[C@H]2C [JH-FK-16] |  |  |  | 0.4 µg/mL (≈ 0.48 µM) | 0.4 µg/mL (≈ 0.48 µM) | 1.3 µg/mL |  | 
CC[C@@H]1/C=C(\C)C[C@H](C)C[C@H](OC)[C@H]2O[C@@](O)(C(=O)C(=O)N3CCCC[C@H]3C(=O)O[C@H](/C(C)=C/C3CC[C@@H](O)[C@H](OC)C3)[C@H](C)[C@@H](O)C/C1=N/NC(=O)c1cccc(C(=O)NN)c1)[C@H](C)C[C@@H]2OC (stereo partly drawn) [JH-FK-14] | 4.9 | 1.6 µg/mL (≈ 1.65 µM) | 14 nM |  |  | 0.6 µg/mL | 0.8 µg/mL (≈ 0.826 µM) | 1.6 µg/mL (≈ 1.65 µM)
CC[C@@H]1/C=C(\C)C[C@H](C)C[C@H](OC)[C@H]2O[C@@](O)(C(=O)C(=O)N3CCCC[C@H]3C(=O)O[C@H](/C(C)=C/C3CC[C@@H](O)[C@H](OC)C3)[C@H](C)[C@@H](O)C/C1=N/NC(=O)c1ccc(N)cc1)[C@H](C)C[C@@H]2OC (stereo partly drawn) [JH-FK-20] | 12.3 | 0.8 µg/mL (≈ 0.865 µM) | 17.8 nM |  |  | 0.6 µg/mL | 0.8 µg/mL (≈ 0.865 µM) | 0.8 µg/mL (≈ 0.865 µM)
